Results published in patent publication US20040248777A1, “Biomaterials for nerve reconstruction and process for producing the same” (priority 2001, published 2004).

Settings: laminin fragments in a collagen-filled silicon tube
Excerpt: The present invention is directed to a biomaterial for nerve reconstruction, comprising chitin or chitosan with a surface modified by a laminin fragment having an amino acid sequence, such as YIGSR (tyrosine-isoleucine-glycine-serine-arginine) or IKVAV (isoleucine-lysine-valine-alanine-valine). This material may be used in the form of a nerve-bridging chitosan tube with a wall surface directly modified by the above laminin fragment, a nerve-bridging tube containing therein chitosan fibers with a surface modified by the above laminin fragment, or a nerve-bridging tube filled with chitosan gel modified by the above laminin fragment.

| Substance | cell adhesion and neurite growth-promoting effects in vivo |
| --- | --- |
| isoleucine-lysine-valine-alanine-valine [IKVAV] | cannot achieve such effects |
| tyrosine-isoleucine-glycine-serine-arginine [YIGSR] | cannot achieve such effects |
